According to US20030124585A1, “Type II gonadotropin-releasing hormone receptor and polynucleotides encoding therefor” (Medical Research Council, priority 2000, published 2003):
Like-named read-outs stand apart in the source and are kept apart here. Square brackets hold non-standard residues; d marks the D form. Peptide text beside a SMILES is read from it. pGlu = O=C1CC[C@@H](C(=O)O)N1

Columns and labels:
[1] = target: T1, Marmoset Type II GnRH-R (Callithrix jacchus, UniProt Q95MG6); test: Receptor binding, competition with 125I-[His5,D-Tyr6]GnRH, transfected COS-7 cells; conditions: for IC50: s.e.m.
T1 construct: Full length marmoset Type II GnRH receptor was produced by PCR; expressed in transfected cells; host or cells: COS-7 cells, transient transfection (Superfect), plasmid pcDNA3.1+
T1 sequence (Q95MG6 1-380): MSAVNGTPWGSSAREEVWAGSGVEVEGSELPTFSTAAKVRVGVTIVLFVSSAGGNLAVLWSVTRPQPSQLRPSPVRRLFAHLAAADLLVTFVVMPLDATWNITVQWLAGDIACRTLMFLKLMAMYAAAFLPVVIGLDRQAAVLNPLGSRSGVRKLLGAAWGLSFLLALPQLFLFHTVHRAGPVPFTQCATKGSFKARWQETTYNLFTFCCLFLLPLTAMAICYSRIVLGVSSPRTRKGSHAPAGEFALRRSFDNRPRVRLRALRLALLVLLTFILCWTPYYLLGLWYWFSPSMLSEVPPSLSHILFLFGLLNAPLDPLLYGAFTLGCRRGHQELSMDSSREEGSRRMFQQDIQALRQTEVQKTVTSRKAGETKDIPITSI
Description: (§1) Cell culture and transfection. COS-7 cells were cultured as previously described (20, 21). Transient transfections of COS-7 cells with human Type I GnRH receptor or marmoset Type II GnRH receptor, along with myc-tagged ERK2, JNK and p38α constructs were performed using Superfect (Qiagen) according to the manufacturer's protocol. All assays described were performed 48 h post transfection.
(§2) Receptor binding and inositol phosphate production.

[2] = target: T1, Marmoset Type II GnRH-R; test: Total inositol phosphate production in transfected COS-7 cells; type: cell-based; conditions: for EC50: s.e.m.
Description: as §1, §2

[3] = target: T2, human Type I GnRH receptor (Homo sapiens, UniProt P30968); test: Phospho-MAP kinase assay, ERK2 activation in transfected COS-7 cells; type: cell-based; conditions: FIG. 8a
T2 construct: expressed in transfected cells; host or cells: COS-7 cells, transient transfection (Superfect)
T2 sequence (P30968 1-328): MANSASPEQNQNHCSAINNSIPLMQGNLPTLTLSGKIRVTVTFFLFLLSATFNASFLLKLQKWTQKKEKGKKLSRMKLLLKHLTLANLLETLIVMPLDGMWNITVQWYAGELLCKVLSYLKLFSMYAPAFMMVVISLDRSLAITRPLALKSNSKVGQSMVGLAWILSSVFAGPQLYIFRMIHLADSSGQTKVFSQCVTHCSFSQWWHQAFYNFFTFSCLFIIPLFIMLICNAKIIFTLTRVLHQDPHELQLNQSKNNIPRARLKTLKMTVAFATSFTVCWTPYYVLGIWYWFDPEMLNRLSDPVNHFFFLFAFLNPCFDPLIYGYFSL
Description: as §1
(§3) Phospho-MAP kinase assay. […] After ligand stimulation, COS-7 cells were prepared for immunoprecipitation (23). Co-transfected myc-tagged MAP kinase constructs were immunoprecipitated from cell lysates by overnight incubation with myc-agarose slurry (Santa Cruz), washed, an equal volume of 2×Laemmli sample buffer added, resolved by SDS-PAGE and electrotransferred to PVDF membrane (NEN Life Sciences). Activated MAP kinase was detected using anti-phospho-ERK/JNK/p38a-kinase specific antisera (New England Biolabs), visualised by enzyme-linked chemifluorescence (Amersham-Pharmacia) and quantified using a phosphorimager. The degree of phosphorylated MAP kinase was normalised to the amount of unphosphorylated MAP kinase detected with specific antisera.

[4] = tested on: FSH and LH secretion; test: Stimulation of LH and FSH in sheep (Soay ram model); type: in vivo; conditions: 10 μg dose, intravenous bolus, n=8
Description: Stimulation of LH and FSH in sheep. […] The same animals (n=8) were used on the two occasions. The GnRHs were administered at doses of 250 ng/ram and 10 μg/ram in a cross-over design with a week between treatments to permit full recovery. The peptides were dissolved in 1 ml of 0.9% saline and given as an intravenous bolus. Blood samples were collected every 10 min, from 20 min before, until 2 h after the treatments and assayed by specific radioimmunoassays (24). The FSH and LH responses to the GnRH agonists were calculated as delta responses (2 h mean hormone concentration post treatment minus 20 min mean pre-treatment hormone concentration). […] This was assessed for each animal and then for the group (mean±SEM, n=8), under both LD and SD.

[5] = target: T3, marmoset Type II GnRH receptor (Callithrix jacchus, UniProt Q95MG6); test: Phospho-MAP kinase assay, p38α activation in transfected COS-7 cells; type: cell-based; conditions: 100 nM, FIG. 8c
T3 construct: Full length marmoset Type II GnRH receptor was produced by PCR; expressed in transfected cells; host or cells: COS-7 cells, transient transfection (Superfect), plasmid pcDNA3.1+
T3 sequence (Q95MG6 1-380): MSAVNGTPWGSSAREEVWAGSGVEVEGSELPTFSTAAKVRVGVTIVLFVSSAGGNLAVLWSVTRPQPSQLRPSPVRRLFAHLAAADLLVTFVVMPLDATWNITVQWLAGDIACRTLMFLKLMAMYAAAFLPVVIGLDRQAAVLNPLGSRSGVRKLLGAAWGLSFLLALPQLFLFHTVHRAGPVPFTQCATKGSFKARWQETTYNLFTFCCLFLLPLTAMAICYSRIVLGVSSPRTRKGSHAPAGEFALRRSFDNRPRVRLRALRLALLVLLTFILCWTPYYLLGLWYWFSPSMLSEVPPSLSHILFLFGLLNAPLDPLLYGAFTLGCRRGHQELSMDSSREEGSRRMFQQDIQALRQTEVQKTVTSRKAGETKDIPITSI
Description: as §1, §3

[6] = target: T2, human Type I GnRH receptor; test: Receptor binding, competition with 125I-[His5,D-Tyr6]GnRH, transfected COS-7 cells; conditions: for IC50: Table 1, s.e.m., n=3-6, read-out: Ligand binding (IC50) Human Type I
Description: as §1, §2

[7] = tested on: Marmoset Type II GnRH-R; test: as above; conditions: Type II versus Type I receptor; for Selectivity of the Type II receptor for the ligand (in words): binding, COS-7 cells
Description: as §1, §2

[8] = target: T2, human Type I GnRH receptor; test: Total inositol phosphate production in transfected COS-7 cells; type: cell-based; conditions: for EC50: Table 1, s.e.m., n=3-6, read-out: InsP production (EC50) Human Type I
Description: as §1, §2

[9] = tested on: Type I receptor; conditions: cited from earlier work
[10] = FIG. 4, COS-7 cells, n=2, read-out: IC50, heterologous competition binding of 125I-[His5,D-Tyr6]GnRH
[11] = Table 1, n=3-6, read-out: Ligand binding (IC50) Marmoset Type II
[12] = FIG. 5, COS-7 cells, n=2, read-out: EC50, total inositol phosphate production
[13] = Table 1, n=3-6, read-out: InsP production (EC50) Marmoset Type II

| IC50 [1, 10] [nM] | IC50 [1, 11] [nM] | EC50 [2, 12] [nM] | EC50 [2, 13] [nM] | Activation of ERK2 (in words) [3] | Activation of p38α MAP kinase (in words) [5] | Receptor binding activity as percent of mammalian GnRH I at the Type I receptor ([6]; COS-7 cells) [%] | Receptor binding activity relative to mammalian GnRH I at the Type II receptor ([1]; COS-7 cells) [fold] | Inositol phosphate production activity as percent of mammalian GnRH I at the Type I receptor ([8]; COS-7 cells) [%] | Inositol phosphate production activity relative to mammalian GnRH I at the Type II receptor ([2]; COS-7 cells) [fold] | IC50 [6] [nM] | EC50 [8] [nM] | Compound | Mean ratio of FSH to LH secretion relative to that induced by mammalian GnRH I ([4]; sexually active rams) [times] | Mean ratio of FSH to LH secretion relative to that induced by mammalian GnRH I ([4]; sexually quiescent rams) [times] | Affinity for the Type II receptor relative to the Type I receptor [7] [fold] | Selectivity of the Type II receptor for the ligand (in words) [7] | Affinity and potency as percent of mammalian GnRH I at the Type I receptor [9] [%] |
| --- | --- | --- | --- | --- | --- | --- | --- | --- | --- | --- | --- | --- | --- | --- | --- | --- | --- |
| 51.7 ± 1.9 | 42.6 ± 3.19 | 33.2 ± 6.3 | 40.5 ± 4.43 | considerably more potent than GnRH II |  |  |  |  |  |  |  | CC(C)C[C@H](NC(=O)CNC(=O)[C@H](Cc1ccc(O)cc1)NC(=O)[C@H](CO)NC(=O)[C@H](Cc1c[nH]c2ccccc12)NC(=O)[C@H](Cc1c[nH]cn1)NC(=O)[C@@H]1CCC(=O)N1)C(=O)N[C@@H](CCCNC(=N)N)C(=O)N1CCC[C@H]1C(=O)NCC(N)=O [GnRH I] |  |  |  |  |  |
| 1.3 ± 0.2 | 1.07 ± 0.04 | 0.46 ± 0.12 | 0.45 ± 0.05 |  | selective and time-dependent activation | 10 | 40 | 9 | 90 |  |  | NC(=O)CNC(=O)[C@@H]1CCCN1C(=O)[C@H](Cc1ccc(O)cc1)NC(=O)[C@H](Cc1c[nH]c2ccccc12)NC(=O)CNC(=O)[C@H](Cc1c[nH]cn1)NC(=O)[C@H](CO)NC(=O)[C@H](Cc1c[nH]c2ccccc12)NC(=O)[C@H](Cc1c[nH]cn1)NC(=O)[C@@H]1CCC(=O)N1 [GnRH II, [His^5,Trp^7,Tyr^8]GnRH I] ([pGlu]HWSHGWYPG-NH2; C-terminus assumed) | 2.14±0.29 | 2.02±0.34 | 24 | high selectivity | ≤ 20 |
|  | 3.34 ± 0.06 | 1.1 ± 0.23 | 2.39 ± 0.64 |  |  |  |  |  |  | 11.9 ± 0.35 | 3.8 ± 0.71 | N=C(N)NCCC[C@@H](NC(=O)[C@H](Cc1c[nH]cn1)NC(=O)[C@H](CO)NC(=O)[C@H](Cc1c[nH]c2ccccc12)NC(=O)[C@H](Cc1c[nH]cn1)NC(=O)[C@@H]1CCC(=O)N1)C(=O)N[C@@H](Cc1c[nH]c2ccccc12)C(=O)N[C@@H](Cc1ccc(O)cc1)C(=O)N1CCC[C@H]1C(=O)NCC(N)=O [[D-Arg^6] GnRH II, [D-Arg^6]GnRH II] ([pGlu]HWSH[dR]WYPG-NH2; C-terminus assumed) |  |  |  | more selective |  |
| 9.8 ± 1.4 | 9.48 ± 2.17 | 8.7 ± 0.5 | 5.99 ± 0.91 |  |  |  |  |  |  | 244 ± 23.6 | 9.62 ± 3.5 | CC(C)C[C@H](NC(=O)[C@H](Cc1c[nH]c2ccccc12)NC(=O)CNC(=O)[C@H](Cc1ccc(O)cc1)NC(=O)[C@H](CO)NC(=O)[C@H](Cc1c[nH]c2ccccc12)NC(=O)[C@H](Cc1c[nH]cn1)NC(=O)[C@@H]1CCC(=O)N1)C(=O)N1CCC[C@H]1C(=O)NCC(N)=O [sGnRH, [Trp^7,Leu^8]GnRH I] ([pGlu]HWSYGWLPG-NH2; C-terminus assumed) |  |  |  | more selective |  |
